This is an account of results in patent US12024513B2, “NLRP3 modulators” (INNATE TUMOR IMMUNITY, INC., priority 2018, dated 2024).

T3 sequence (Q96P20 whole entry): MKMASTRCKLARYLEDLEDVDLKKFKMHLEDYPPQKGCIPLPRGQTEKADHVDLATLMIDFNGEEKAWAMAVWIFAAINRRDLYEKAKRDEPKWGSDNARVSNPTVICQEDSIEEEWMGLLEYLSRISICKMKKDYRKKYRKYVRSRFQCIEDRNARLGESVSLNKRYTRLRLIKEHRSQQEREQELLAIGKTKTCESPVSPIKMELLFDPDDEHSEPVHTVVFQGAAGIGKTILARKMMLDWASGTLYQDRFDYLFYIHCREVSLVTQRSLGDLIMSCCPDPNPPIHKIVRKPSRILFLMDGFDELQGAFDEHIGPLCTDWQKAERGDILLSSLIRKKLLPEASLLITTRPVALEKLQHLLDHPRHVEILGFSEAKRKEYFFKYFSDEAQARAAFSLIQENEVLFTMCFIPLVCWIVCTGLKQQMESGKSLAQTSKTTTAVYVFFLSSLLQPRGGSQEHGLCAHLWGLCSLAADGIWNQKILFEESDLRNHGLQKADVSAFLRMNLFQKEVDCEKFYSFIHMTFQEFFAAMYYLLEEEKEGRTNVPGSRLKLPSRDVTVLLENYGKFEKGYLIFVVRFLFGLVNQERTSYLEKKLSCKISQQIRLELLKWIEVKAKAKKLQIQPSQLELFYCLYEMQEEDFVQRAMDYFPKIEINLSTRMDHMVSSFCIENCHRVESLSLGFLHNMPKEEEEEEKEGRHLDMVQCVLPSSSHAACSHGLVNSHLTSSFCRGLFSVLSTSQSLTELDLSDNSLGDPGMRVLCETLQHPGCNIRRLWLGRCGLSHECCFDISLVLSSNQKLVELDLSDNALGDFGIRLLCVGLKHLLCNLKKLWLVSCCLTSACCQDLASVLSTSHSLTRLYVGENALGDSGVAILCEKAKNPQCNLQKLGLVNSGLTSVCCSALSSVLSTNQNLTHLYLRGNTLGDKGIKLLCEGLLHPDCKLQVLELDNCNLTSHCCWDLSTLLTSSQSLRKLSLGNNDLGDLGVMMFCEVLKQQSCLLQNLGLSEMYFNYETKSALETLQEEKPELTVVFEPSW

The first assay deals with T1, human TLR7 (Homo sapiens, UniProt Q9NYK1).
T1 construct: host or cells: human HEK-Blue cells
T1 sequence (Q9NYK1 27-1049): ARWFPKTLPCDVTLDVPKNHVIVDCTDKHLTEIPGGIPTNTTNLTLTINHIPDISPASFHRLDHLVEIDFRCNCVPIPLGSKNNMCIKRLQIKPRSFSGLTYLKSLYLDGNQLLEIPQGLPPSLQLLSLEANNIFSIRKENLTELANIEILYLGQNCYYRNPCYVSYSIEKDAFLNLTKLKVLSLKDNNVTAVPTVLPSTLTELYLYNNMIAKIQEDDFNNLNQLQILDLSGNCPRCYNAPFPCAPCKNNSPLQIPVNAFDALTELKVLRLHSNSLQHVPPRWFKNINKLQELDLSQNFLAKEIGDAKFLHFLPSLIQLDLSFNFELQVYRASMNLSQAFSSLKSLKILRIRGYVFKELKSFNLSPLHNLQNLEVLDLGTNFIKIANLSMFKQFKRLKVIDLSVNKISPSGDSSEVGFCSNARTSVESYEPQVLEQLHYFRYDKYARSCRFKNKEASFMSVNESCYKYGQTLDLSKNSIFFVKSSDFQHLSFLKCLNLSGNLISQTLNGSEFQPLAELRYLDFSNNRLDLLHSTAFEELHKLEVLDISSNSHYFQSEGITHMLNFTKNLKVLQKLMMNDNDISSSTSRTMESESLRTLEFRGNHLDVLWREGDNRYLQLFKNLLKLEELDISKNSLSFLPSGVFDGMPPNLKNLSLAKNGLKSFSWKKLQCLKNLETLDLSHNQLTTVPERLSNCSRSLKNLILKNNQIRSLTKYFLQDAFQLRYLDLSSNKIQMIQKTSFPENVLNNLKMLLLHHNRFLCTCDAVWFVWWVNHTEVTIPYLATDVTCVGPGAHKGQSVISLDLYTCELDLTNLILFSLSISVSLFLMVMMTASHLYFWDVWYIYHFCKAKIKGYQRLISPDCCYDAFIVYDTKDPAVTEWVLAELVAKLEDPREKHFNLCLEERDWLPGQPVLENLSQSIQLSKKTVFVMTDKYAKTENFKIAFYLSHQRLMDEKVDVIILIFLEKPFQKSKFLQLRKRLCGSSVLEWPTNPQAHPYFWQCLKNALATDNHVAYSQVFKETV
As to the kind of experiment: In vitro human TLR7 reporter assay (HEK-Blue, NF-kB/AP1-inducible SEAP). In kind it is cell-based. As to conditions: HEK-Blue cells co-expressing TLR7 and SEAP reporter, 18 h; read-out: TLR7 agonist EC50. The method, then: (§1) In Vitro Human TLR7 and TLR8 Binding Reporter Assays
(§2) Logarithmically-growing human HEK-Blue cells co-expressing a TLR7 or TLR8 gene and a NF-kB/AP1-inducible SEAP (secreted embryonic alkaline phosphatase; Invivogen, San Diego, CA) reporter gene are added to individual wells of a 384-well plate (15,000 cells per 20 μL per well) and maintained for 24 h at 37° C. 5% CO2. Test compounds or DMSO are distributed to separate wells the next day using acoustic liquid handling technology (100 nL per well) and cells are subsequently incubated for 18 h at 37° C. 5% CO2. Cellular SEAP production is measured using an Envision plate reader instrument thirty minutes after adding freshly-made Quanti-Blue reagent (prepared by following manufacturer instructions; Invivogen, San Diego, CA) to the HEK-Blue TLR Nf-kB-SEAP cell reactions. All EC50 values (half-maximal effective concentration) are determined using proprietary data analysis software. Normalized EC50 value=absolute value determined by setting 100% Ymax using a reference standard RLU (relative light unit) values from cells treated with 50 μM of the reference standard.
(In a reporter assay the amount or activity of a reporter protein is the signal.)
With `Nc1nc2cc(-c3cc[nH]n3)ccc2c2c1nc(CNC(=O)C1CCCCO1)n2CC(F)F` (centres unmarked) [Example 19], the EC50 (as a rule, the concentration giving half of the maximal effect) was in the range of 20000 to 100000 nM.

A further assay has as its target T2, human TLR8 (Homo sapiens, UniProt Q9NR97).
T2 construct: host or cells: human HEK-Blue cells
T2 sequence (Q9NR97 27-1041): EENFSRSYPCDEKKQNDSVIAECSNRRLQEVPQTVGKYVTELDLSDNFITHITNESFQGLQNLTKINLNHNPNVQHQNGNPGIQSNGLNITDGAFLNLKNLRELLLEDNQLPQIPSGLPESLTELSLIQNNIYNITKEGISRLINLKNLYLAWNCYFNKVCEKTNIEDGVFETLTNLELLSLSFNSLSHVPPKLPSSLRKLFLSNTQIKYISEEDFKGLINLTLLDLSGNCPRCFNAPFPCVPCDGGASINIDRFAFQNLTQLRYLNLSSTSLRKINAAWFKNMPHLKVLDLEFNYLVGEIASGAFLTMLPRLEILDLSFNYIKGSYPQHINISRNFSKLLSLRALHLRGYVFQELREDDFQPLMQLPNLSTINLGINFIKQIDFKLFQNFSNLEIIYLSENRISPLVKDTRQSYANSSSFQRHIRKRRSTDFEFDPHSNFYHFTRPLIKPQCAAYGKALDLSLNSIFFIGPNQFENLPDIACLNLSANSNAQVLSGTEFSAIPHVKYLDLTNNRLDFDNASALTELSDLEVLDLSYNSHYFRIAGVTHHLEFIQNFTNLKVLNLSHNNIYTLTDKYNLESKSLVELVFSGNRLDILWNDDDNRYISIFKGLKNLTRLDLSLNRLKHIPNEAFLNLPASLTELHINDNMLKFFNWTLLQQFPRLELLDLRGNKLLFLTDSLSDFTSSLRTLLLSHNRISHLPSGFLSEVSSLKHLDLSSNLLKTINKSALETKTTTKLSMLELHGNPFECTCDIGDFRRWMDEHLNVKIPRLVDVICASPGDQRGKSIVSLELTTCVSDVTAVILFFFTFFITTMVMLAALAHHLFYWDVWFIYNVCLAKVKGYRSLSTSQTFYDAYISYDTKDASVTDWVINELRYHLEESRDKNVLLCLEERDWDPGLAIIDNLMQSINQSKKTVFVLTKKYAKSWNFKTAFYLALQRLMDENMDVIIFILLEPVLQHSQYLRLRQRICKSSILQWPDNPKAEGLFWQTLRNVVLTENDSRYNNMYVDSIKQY
The assay can be described thus: In vitro human TLR8 reporter assay (HEK-Blue, NF-kB/AP1-inducible SEAP). Particulars: HEK-Blue cells co-expressing TLR8 and SEAP reporter, 18 h; read-out: TLR8 agonist EC50. In kind it is cell-based. The method, then: as §1, §2
As to `CC(C)n1c(CNC(=O)c2ccccn2)nc2c(N)nc3cc(-c4cc[nH]n4)ccc3c21` [Example 14], the EC50 was 20000 to 100000 nM.
As for `Nc1nc2cc(-c3cc[nH]n3)ccc2c2c1nc(CNC(=O)C1CCCCO1)n2CC(F)F` (centres unmarked) [Example 19], the EC50 lay within 20000 to 100000 nM.

Another assay concerns the target T3, NLRP3 (Homo sapiens, UniProt Q96P20).
T3 construct: host or cells: THP-1 cells, PMA-differentiated
The assay can be described thus: Measurement of IL-1β production in PMA-differentiated THP-1 cells (NLRP3 hIL1B). In kind it is cell-based. As to conditions: one or more of the described procedures. On the procedure:
Measurement of IL-1β Production in PMA-Differentiated THP-1 Cells
THP-1 cells were purchased from the American Type Culture Collection and sub-cultured according to instructions from the supplier. Prior to experiments, cells were cultured in RPMI 1640 containing 10% heat inactivated FBS, penicillin (100 units/ml) and streptomycin (100 μg/ml), and maintained in log phase prior to experimental setup. Prior to the experiment THP-1 were treated with PMA (Phorbol 12-myristate 13-acetate) (10 μg/ml) for 24 hours. The day of the experiment the media was removed and attaching cells were treated with trypsin for 2 minutes, cells were then collected, washed with PBS (phosphate buffer saline), spin down, resuspended in 2% heat inactivated FBS with RPMI at a concentration of 1×10^6 cells/ml, and 100 μl was plated in a 96 well plate. Compounds were dissolved in dimethyl sulfoxide (DMSO) and added to the culture medium to achieve desired concentration (e.g. 100, 30, 10, 3, 1, 0.3 or 0.1 μM). Cells were incubated with compounds for 4 hours. Cell free supernatant was collected and the production of IL-1β was evaluated by ELISA. A vehicle only control was run concurrently with each experiment. Final DMSO concentration was 1%.
Measurement of IL-1β Production in PMA-Differentiated THP-1 Cells (Alternative Procedure)
THP-1 cells were purchased from the American Type Culture Collection and sub-cultured according to instructions from the supplier. Prior to experiments, cells were cultured in RPMI 1640 containing 10% heat inactivated FBS, penicillin (100 units/ml), streptomycin (100 μg/ml), HEPES (10 mM) and sodium pyruvate (1 mM) and maintained in log phase prior to experimental setup. Prior to the experiment, THP-1 cells were treated with PMA (Phorbol 12-myristate 13-acetate) (20 μg/ml) overnight. The day of the experiment, the media was removed and attached cells were treated with trypsin for 2 minutes, cells were then collected, washed with PBS (phosphate buffer saline), pelleted by centrifugation and resuspended in 2% heat inactivated FBS with RPMI at a concentration of 50,000 cells/well in a 384 well plate. Cell free supernatant was collected and the production of IL-1β was evaluated by ELISA. Compounds were dissolved in dimethyl sulfoxide (DMSO) and added to the culture medium to achieve desired concentration (e.g. 100, 30, 10, 3, 1, 0.3 or 0.1 μM). Cells were incubated with compounds for 2 hours. A vehicle only control was run concurrently with each experiment. Final DMSO concentration was 1%.
Measurement of IL-1β Production—hTRF Protocol (Second Alternative Procedure)
Serial dilutions of compounds in DMSO were added to low volume 384 well plates at 100 nl/well using an ECHO 550 acoustic dispenser (Labcyte) to achieve final starting concentration of 10 μM in assay.
THP-1 cells in RPMI (Gibco, 11875) media with 10% FBS at a density of 1×10^6 cell/ml in a T175 flask were treated with a final concentration of phorbol 12-myristate 13-acetate (PMA) (Sigma, PI585) of 50 ng/ml overnight at 37° C. at 5% CO2 for differentiation. Cells were harvested the next day after rinsing well wth dPBS using 0.5% trypsin. A cell solution was prepared of 1×10^6 cells/ml for 50,000 cells in 50 μl/well in RPMI media with 2% FBS. Cells were plated using a multichannel pipette onto the compound dilutions in Greiner, 384 well, black clear bottom tissue culture treated plates (781090). The plates were incubated in 37° C. incubator at 5% CO2 for 2 hours.
After the 2 hour incubation, the cell plates were spun in the centrifuge for 5 minutes at 1200 rpm. Using the Felix (CyBio), 8 μl of the supernatant was transferred to 384 well, low volume, white proxy plates. (Perkin Elmer, 6008230). A human ILlbeta hTRF kit was used to analyze the supernatant (CISBIO, 62HIL1BPEG). The kit instructions were followed for preparing the IL1Beta standard curve and then the antibodies from the kit were diluted 1:40 rather than 1:20 as kit instructed. […]
As for `Nc1nc2cc(-c3cc[nH]n3)ccc2c2c1nc(CCNC(=O)c1ccc(F)cn1)n2CC(F)F` [Example 4], the IC50 – broadly, the concentration needed to halve the response being measured – was determined as 340 nM.
`CC(C)n1c(CNC(=O)C2CCCCO2)nc2c(N)nc3cc(-c4cc[nH]n4)ccc3c21` (centres unmarked) [Example 15] displayed an IC50 of 270 nM.
For `CC(C)n1c(CCNC(=O)c2csc(Cl)n2)nc2c(N)nc3cc(-c4cc[nH]n4)ccc3c21` [Example 10], the IC50 came to 160 nM.
On to `COc1ccc(C(=O)NCCc2nc3c(N)nc4cc(-c5cc[nH]n5)ccc4c3n2C(C)C)nc1` [Example 12], for which the half-maximal inhibitory concentration (IC50) came out at 270 nM.
On to `CC(C)n1c(CNC(=O)c2ccccn2)nc2c(N)nc3cc(-c4cc[nH]n4)ccc3c21` [Example 14], for which half-maximal inhibition (IC50) required 240 nM. This IC50 and that of the compound before are within 1.5-fold of each other.
For `CC(C)n1c(CCNC(=O)c2ccccn2)nc2c(N)nc3cc(-c4cc[nH]n4)ccc3c21` [Example 2], the half-maximal inhibitory concentration (IC50) worked out at 70 nM.
With `COc1ccc(C(=O)NCCc2nc3c(N)nc4cc(-c5cc[nH]n5)ccc4c3n2C2CCC2)nc1` [Example 7], the IC50 came to 180 nM.
Same read-out and setting: then `Nc1nc2cc(-c3cc[nH]n3)ccc2c2c1nc(CCNC(=O)c1csc(Cl)n1)n2CC(F)F` [Example 11], with 590 nM; and `Nc1nc2cc(-c3cc[nH]n3)ccc2c2c1nc(CCNC(=O)c1ccccn1)n2CC(F)F` [Example 3], with 220 nM; and `Nc1nc2cc(-c3cc[nH]n3)ccc2c2c1nc(CNC(=O)C1CCCCO1)n2CC(F)F` (centres unmarked) [Example 19], with 790 nM.
`CC(C)n1c(CCNC(=O)c2ccc(F)cn2)nc2c(N)nc3cc(-c4cc[nH]n4)ccc3c21` [Example 9] showed an IC50 of 120 nM.
For the compound `CC(C)n1c(CNC(=O)C2CCCO2)nc2c(N)nc3cc(-c4cc[nH]n4)ccc3c21` (centres unmarked) [Example 16], 220 nM corresponded to half-maximal inhibition (IC50).
For the compound `Nc1nc2cc(-c3cc[nH]n3)ccc2c2c1nc(CCNC(=O)c1ccccn1)n2C1CC1` [Example 5], the IC50 came out at 440 nM.
Compound `CC(C)n1c(CCNC(=O)C2CCCO2)nc2c(N)nc3cc(-c4cc[nH]n4)ccc3c21` (centres unmarked) [Example 18] registered an IC50 of 1940 nM. Against the preceding compound, the IC50 is about 4.4-fold higher.
As to `Nc1nc2cc(-c3cc[nH]n3)ccc2c2c1nc(CCNC(=O)c1ccccn1)n2C1CCC1` [Example 6], the half-inhibitory concentration (IC50) stood at 410 nM.
The compound `Nc1nc2cc(-c3cc[nH]n3)ccc2c2c1nc(CCNC(=O)C1CCCCO1)n2CC(F)F` (centres unmarked) [Example 17] returned an IC50 of 1320 nM.
Turning to `Nc1nc2cc(-c3cc[nH]n3)ccc2c2c1nc(CCNC(=O)c1ccc(F)cn1)n2C1CC1` [Example 8], it took 270 nM to reach half-maximal inhibition (IC50). This IC50 is about 4.9-fold lower than that of the compound before.
Regarding `Nc1nc2cc(-c3cc[nH]n3)ccc2c2c1nc(CNC(=O)C1CCCO1)n2CC(F)F` (centres unmarked) [Example 20], the IC50 was 1880 nM.
For `Nc1nc2cc(-c3cc[nH]n3)ccc2c2c1nc(CCNC(=O)c1ccc(F)cn1)n2C1CCC1` [Example 1, N-{2-[4-amino-1-cyclobutyl-7-(1H-pyrazol-5-yl)-1H-imidazo[4,5-c]quinolin-2-yl]ethyl}-5-fluoropyridine-2-carboxamide], the IC50 worked out at 120 nM. Against the preceding compound, the IC50 is about 16-fold lower.
For `COc1ccc(C(=O)NCCc2nc3c(N)nc4cc(-c5cc[nH]n5)ccc4c3n2C2CC2)nc1` [Example 13], the IC50 stood at 1240 nM.
